Assay results as given in patent US7226944B2, “Taxanes having a C7 carbonate substituent” (FSU Research Foundation, Inc., priority 2000, dated 2007).
Where two headings read alike, the source gives them in different places.

Assays:
HCT116 = assay: In vitro cytotoxicity measured by the cell colony formation assay; assay type: cell-based; conditions: read-out: IN VITRO ID 50 (nm) HCT116
Method: Four hundred cells (HCT116) were plated in 60 mm Petri dishes containing 2.7 mL of medium (modified McCoy's 5a medium containing 10% fetal bovine serum and 100 units/mL penicillin and 100 µg/mL streptomycin). The cells were incubated in a CO2 incubator at 37° C. for 5 h for attachment to the bottom of Petri dishes. The compounds identified in Example 2 were made up fresh in medium at ten times the final concentration, and then 0.3 mL of this stock solution was added to the 2.7 mL of medium in the dish. The cells were then incubated with drugs for 72 h at 37° C. At the end of incubation the drug-containing media were decanted, the dishes were rinsed with 4 mL of Hank's Balance Salt Solution (HBSS), 5 mL of fresh medium was added, and the dishes were returned to the incubator for colony formation. The cell colonies were counted using a colony counter after incubation for 7 days.

[1] = HCT116 cells, drug concentration producing 50% inhibition of colony formation, 72 h with drug at 37° C., colonies counted after 7 days

`COC(=O)O[C@H]1C[C@H]2OC[C@@]2(OC(C)=O)C2[C@H](OC(=O)c3ccccc3)[C@]3(O)C[C@H](OC(=O)[C@H](O)[C@@H](NC(=O)OC(C)(C)C)c4cccs4)C(C)=C([C@@H](O)C(=O)[C@@]21C)C3(C)C` (some centres unmarked) [Compound 4262, 3′-Desphenyl-3′-(2-thienyl)-7-methoxycarbonyl taxotere] gave an IC50 (HCT116; Homo sapiens, HCT-116) of less than 1 nM and a melting point of 142.5 to 143 °C.

`CCOC(=O)O[C@H]1C[C@H]2OC[C@@]2(OC(C)=O)C2[C@H](OC(=O)c3ccccc3)[C@]3(O)C[C@H](OC(=O)[C@H](O)[C@@H](NC(=O)C=C(C)C)c4cccs4)C(C)=C([C@@H](O)C(=O)[C@@]21C)C3(C)C` (some centres unmarked) [Compound 4164] gave an IC50 (HCT116; [1]) of less than 1 nM.

Molecule `C/C=C/C(=O)N[C@@H](c1ccco1)[C@@H](O)C(=O)O[C@H]1C[C@@]2(O)[C@@H](OC(=O)c3ccccc3)C3[C@](C)(C(=O)[C@H](O)C(=C1C)C2(C)C)[C@@H](OC(=O)OCC)C[C@H]1OC[C@@]31OC(C)=O` (some centres unmarked) [Compound 4818] has an IC50 (HCT116; [1]) of less than 1 nM.

For `COC(=O)O[C@H]1C[C@H]2OC[C@@]2(OC(C)=O)C2[C@H](OC(=O)c3ccccc3)[C@]3(O)C[C@H](OC(=O)[C@H](O)[C@H](C=C(C)C)NC(=O)OC(C)(C)C)C(C)=C([C@@H](O)C(=O)[C@@]21C)C3(C)C` (some centres unmarked) [Compound 4484], the IC50 (HCT116; [1]) was less than 1 nM.

In the case of `CCOC(=O)O[C@H]1C[C@H]2OC[C@@]2(OC(C)=O)C2[C@H](OC(=O)c3ccccc3)[C@]3(O)C[C@H](OC(=O)[C@H](O)[C@@H](NC(=O)OC(C)(C)C)c4ccoc4)C(C)=C([C@@H](O)C(=O)[C@@]21C)C3(C)C` (some centres unmarked) [Compound 4464], the IC50 (HCT116; [1]) is reported as less than 1 nM.

Work on `CC(=O)O[C@H]1C[C@H]2OC[C@@]2(OC(C)=O)C2[C@H](OC(=O)c3ccccc3)[C@]3(O)C[C@H](OC(=O)[C@H](O)[C@@H](NC(=O)OCC(C)C)c4ccsc4)C(C)=C([C@@H](O)C(=O)[C@@]21C)C3(C)C` (some centres unmarked) [Compound 4515] yielded an IC50 (HCT116; [1]) of less than 10 nM.

For `C/C=C/C(=O)N[C@@H](c1ccoc1)[C@@H](O)C(=O)O[C@H]1C[C@@]2(O)[C@@H](OC(=O)c3ccccc3)C3[C@](C)(C(=O)[C@H](O)C(=C1C)C2(C)C)[C@@H](OC(=O)OC)C[C@H]1OC[C@@]31OC(C)=O` (some centres unmarked) [Compound 4877], the IC50 (HCT116; [1]) was less than 1 nM.

Molecule `CCOC(=O)O[C@H]1C[C@H]2OC[C@@]2(OC(C)=O)C2[C@H](OC(=O)c3ccccc3)[C@]3(O)C[C@H](OC(=O)[C@H](O)[C@@H](NC(=O)OC(C)(C)C)c4cccs4)C(C)=C([C@@H](O)C(=O)[C@@]21C)C3(C)C` (some centres unmarked) [Compound 4234] has an IC50 (HCT116; [1]) of less than 1 nM.

`COC(=O)O[C@H]1C[C@H]2OC[C@@]2(OC(C)=O)C2[C@H](OC(=O)c3ccccc3)[C@]3(O)C[C@H](OC(=O)[C@H](O)[C@@H](NC(=O)OCC(C)C)C4CC4)C(C)=C([C@@H](O)C(=O)[C@@]21C)C3(C)C` (some centres unmarked) [Compound 5211] showed an IC50 (HCT116; [1]) of less than 10 nM.

Work on `C/C=C/C(=O)N[C@@H](c1cccs1)[C@@H](O)C(=O)O[C@H]1C[C@@]2(O)[C@@H](OC(=O)c3ccccc3)C3[C@](C)(C(=O)[C@H](O)C(=C1C)C2(C)C)[C@@H](OC(=O)OC)C[C@H]1OC[C@@]31OC(C)=O` (some centres unmarked) [Compound 4766] yielded an IC50 (HCT116; [1]) of less than 1 nM.

`CCOC(=O)O[C@H]1C[C@H]2OC[C@@]2(OC(C)=O)C2[C@H](OC(=O)c3ccccc3)[C@]3(O)C[C@H](OC(=O)[C@H](O)[C@@H](NC(=O)OCC(C)C)c4ccco4)C(C)=C([C@@H](O)C(=O)[C@@]21C)C3(C)C` (some centres unmarked) [Compound 4696] showed an IC50 (HCT116; [1]) of less than 1 nM.

With `CCOC(=O)O[C@H]1C[C@H]2OC[C@@]2(OC(C)=O)C2[C@H](OC(=O)c3ccccc3)[C@]3(O)C[C@H](OC(=O)[C@H](O)[C@@H](NC(=O)OCC(C)C)C4CC4)C(C)=C([C@@H](O)C(=O)[C@@]21C)C3(C)C` (some centres unmarked) [Compound 5225] the IC50 (HCT116; [1]) was less than 10 nM.

For `C/C=C/C(=O)N[C@@H](c1ccco1)[C@@H](O)C(=O)O[C@H]1C[C@@]2(O)[C@@H](OC(=O)c3ccccc3)C3[C@](C)(C(=O)[C@H](O)C(=C1C)C2(C)C)[C@@H](OC(=O)OC)C[C@H]1OC[C@@]31OC(C)=O` (some centres unmarked) [Compound 4744], the IC50 (HCT116; [1]) was less than 1 nM.

Molecule `CCOC(=O)O[C@H]1C[C@H]2OC[C@@]2(OC(C)=O)C2[C@H](OC(=O)c3ccccc3)[C@]3(O)C[C@H](OC(=O)[C@H](O)[C@@H](NC(=O)c4ccccc4)c4cccs4)C(C)=C([C@@H](O)C(=O)[C@@]21C)C3(C)C` (some centres unmarked) [Compound 4188] has an IC50 (HCT116; [1]) of less than 10 nM.

Molecule `CCC(C)(C)OC(=O)N[C@@H](c1ccco1)[C@@H](O)C(=O)O[C@H]1C[C@@]2(O)[C@@H](OC(=O)c3ccccc3)C3[C@](C)(C(=O)[C@H](O)C(=C1C)C2(C)C)[C@@H](OC(=O)OCc1ccccc1)C[C@H]1OC[C@@]31OC(C)=O` (some centres unmarked) [Compound 6246] has an IC50 (HCT116; [1]) of less than 1 nM.

`CCOC(=O)O[C@H]1C[C@H]2OC[C@@]2(OC(C)=O)C2[C@H](OC(=O)c3ccccc3)[C@]3(O)C[C@H](OC(=O)[C@H](O)[C@@H](NC(=O)c4cccs4)c4cccs4)C(C)=C([C@@H](O)C(=O)[C@@]21C)C3(C)C` (some centres unmarked) [Compound 4455] gave an IC50 (HCT116; [1]) of less than 1 nM.

`CCOC(=O)O[C@H]1C[C@H]2OC[C@@]2(OC(C)=O)C2[C@H](OC(=O)c3ccccc3)[C@]3(O)C[C@H](OC(=O)[C@H](O)[C@@H](NC(=O)c4ccco4)c4cccs4)C(C)=C([C@@H](O)C(=O)[C@@]21C)C3(C)C` (some centres unmarked) [Compound 4304] gave an IC50 (HCT116; [1]) of less than 10 nM.

In the case of `CCOC(=O)O[C@H]1C[C@H]2OC[C@@]2(OC(C)=O)C2[C@H](OC(=O)c3ccccc3)[C@]3(O)C[C@H](OC(=O)[C@H](O)[C@@H](NC(=O)OC(C)(C)C)C4CC4)C(C)=C([C@@H](O)C(=O)[C@@]21C)C3(C)C` (some centres unmarked) [Compound 5165], the IC50 (HCT116; [1]) is reported as less than 1 nM.

`C/C=C/C(=O)N[C@@H](c1cccs1)[C@@H](O)C(=O)O[C@H]1C[C@@]2(O)[C@@H](OC(=O)c3ccccc3)C3[C@](C)(C(=O)[C@H](O)C(=C1C)C2(C)C)[C@@H](OC(=O)OCC)C[C@H]1OC[C@@]31OC(C)=O` (some centres unmarked) [Compound 4855] showed an IC50 (HCT116; [1]) of less than 1 nM.

Work on `CCOC(=O)O[C@H]1C[C@H]2OC[C@@]2(OC(C)=O)C2[C@H](OC(=O)c3ccccc3)[C@]3(O)C[C@H](OC(=O)[C@H](O)[C@@H](NC(=O)C=C(C)C)c4ccco4)C(C)=C([C@@H](O)C(=O)[C@@]21C)C3(C)C` (some centres unmarked) [Compound 6151] yielded an IC50 (HCT116; [1]) of less than 1 nM.

`CCOC(=O)O[C@H]1C[C@H]2OC[C@@]2(OC(C)=O)C2[C@H](OC(=O)c3ccccc3)[C@]3(O)C[C@H](OC(=O)[C@H](O)[C@@H](NC(=O)OC(C)C)c4cccs4)C(C)=C([C@@H](O)C(=O)[C@@]21C)C3(C)C` (some centres unmarked) [Compound 4151] showed an IC50 (HCT116; [1]) of less than 1 nM.

In the case of `C/C=C/C(=O)N[C@@H](c1ccsc1)[C@@H](O)C(=O)O[C@H]1C[C@@]2(O)[C@@H](OC(=O)c3ccccc3)C3[C@](C)(C(=O)[C@H](O)C(=C1C)C2(C)C)[C@@H](OC(=O)OCC)C[C@H]1OC[C@@]31OC(C)=O` (some centres unmarked) [Compound 4999], the IC50 (HCT116; [1]) is reported as less than 1 nM.
